Results from publication PMC9223658, “New Borane-Protected Derivatives of α-Aminophosphonous Acid as Anti-Osteosarcoma Agents: ADME Analysis and Molecular Modeling, In Vitro Studies on Anti-Cancer Activities, and NEP Inhibition as a Possible Mechanism of Anti-Proliferative Activity” (International Journal of Molecular Sciences, 2022).

Legend:
osteosarcoma HOS cells = experiment: MTT proliferation assay, 96 h; type: cell-based, human; conditions: HOS; for IC50: proliferation, 10% FBS, read-out: IC50 (µM ± SD) HOS
Procedure: (§1) One of the features specific totumor cells is the unlimited potential for proliferation. […] To this end, the assay conditions were established suchthat they encourage the proliferation of OS cells, i.e., the cell cultures at low density were incubated with compounds diluted in the growth medium (10% FBS) for an extended time of 96 h. Additionally, cisplatin, i.e., a common cytostatic used in osteosarcoma treatment, was included as a positive control in this study. Moreover, since the new generation of anti-cancer compounds is highly desired to be inert (non-cytotoxic) towards normal cells, the influence of compounds 1–7 on the viability of human normal cells (osteoblasts hFOB 1.19 and colon fibroblasts CCD-18Co) was also determined.To this end, the assay conditions were established such that they restrict the proliferation of OS cells and to establish whether the compounds have cytotoxic potential, i.e., the cell cultures were incubated with compounds diluted in the medium with a reduced concentration of FBS (2%) for a shortened time of 24 h. […] However, this activity varied depending on both the types of the compounds and the osteosarcoma cell lines (Table 4).
(§2) The anti-proliferative activity of compounds 1–7 against the HOS and Saos-2 osteosarcoma cells and the viability of the human normal hFOB 1.19 and CCD-18Co cells were screened by means of the MTT method. This method is commonly used to assess cell viability and proliferation or to determine the cytotoxicity of any compounds. It is a reliable method for this purpose because it is based on measurement of the level reduction in MTT dye to formazan byNAD(P)H-dependent oxidoreductase enzymes of metabolically active cells.
(§3) To assess the anti-proliferative activity of compounds 1–7 against the HOS and Saos-2 osteosarcoma cells, 3.0 × 10^4 cells/mLseeded (low density culture) into 96-well plates (Nunc, Roskilde, Denmark) were incubated with each compound at concentrations of 3.125, 6.25, 12.5, 25, 50, 100 and 200 µM prepared in medium with 10% FBS (growth medium) for 96 h. Additionally, cisplatin (Sigma Aldrich), i.e., a common cytostatic used in osteosarcoma treatment, was included as a positive control in this study. It was tested in the same conditions as compounds 1–7. The negative control was constituted by the untreated cells (0 µM). Next, the MTT assay was carried out as described previously.
(§4) The results of these assays were calculated as a percent of the untreated cells (100%; control). Then, the IC50 (concentration resulting in 50% inhibition of proliferation) and CC50 (concentration resulting in a 50% decrease in viability) values were calculated from a non-linear regression (log(inhibitor) vs. normalized response-variable slope) using GraphPad Prism 5.0 (GraphPAD Software Inc., San Diego, CA, USA). The IC50 and CC50 results were presented as themean ± SD of at least three experiments. In the case of the BrdU assay, the results were presented as a percent of untreated cells (100%; control).

[1] = test system: osteosarcoma Saos-2 cells; experiment: MTT proliferation assay, 96 h; type: cell-based, human; conditions: for IC50: SAOS-2, proliferation, 10% FBS, read-out: IC50 (µM ± SD) Saos-2
Procedure: as §1, §2, §3, §4

NEP (neprilysin) = biological target: T1, NEP (neprilysin) (Homo sapiens, UniProt P08473); experiment: Neutral endopeptidase activity assay (fluorometric); type: biochemical; conditions: vs control
T1 construct: purchased BioVision, Waltham, MA, USA
Procedure: The NEP activity in the presence of compounds 4 and 6 was determined using the Neprilysin Activity Assay Kit (BioVision, Waltham, MA, USA) according to the manufacturer’s instructions. The measurement is based on the ability of active neprilysin to cleave a synthetic substrate (Abz-based peptide) to release a fluorophore, which can be easily quantified using a fluorescence microplate reader. Briefly, pure neprilysin (5µLof stock solution) was incubated with solutions of the tested compounds (at least 4 concentrations in the range of 0.01–50 µM) for 10 min at 37 °C. The reaction was started by adding the substrate solution, and the final sample volume was 100µL. Fluorescence was measured (Ex/Em = 330/430nm) in the kinetic mode at 37 °C for 1–2 h. The same procedure was used to measure the control and background sample. Thiorphan was used as a reference NEP inhibitor. NEP activity was determined with the prepared Abz standard curve and expressed in µU/mL. The experiments were performed at least in triplicates, and the graphs represent mean ±SD values.

Saos-2 cells = experiment: BrdU proliferation assay, 96 h; type: cell-based, human; conditions: Saos-2, 60 µM, cells pre-treated with 100 µM thiorphan for 1 h, 96 h
Procedure: (§5) In the study on the implication of NEP in the anti-proliferative activity of compound 4, cell proliferation was determined with the BrdU assay. Cell cultures were prepared as described above. Depending on the requirements, the HOS and Saos-2 cells were treated with non-cytotoxic concentrations of the NEP inhibitor—thiorphan (1, 5, 20, 100, 200, 500 µM) or pre-treated with thiorphan (100 µM) for 1 h. In this scheme, compound 4 (HOS—25 µM; Saos-2—60 µM) was added alone or in combination with the NEP inhibitor into the cell cultures. Finally, cell proliferation was evaluated with the BrdU Cell Proliferation Assay according to the manufacturer’s instructions (Millipore, Darmstadt, Germany) after a 96-h incubation.
as §4

HOS cells = experiment: BrdU proliferation assay, 96 h; type: cell-based, human; conditions: 25 µM, cells pre-treated with 100 µM thiorphan for 1 h, 96 h
Procedure: as §5, §4

[2] = MTT viability assay, 24 h; type: cell-based; conditions: human, normal osteoblasts hFOB 1.19 cells, 2% FBS, read-out: CC50 (µM ± SD) hFOB 1.19
Procedure: as §1, §2
To assess the viability of human normal cells, confluent hFOB 1.19 (3 × 10^5 cells/mL) and CCD-18Co (1 × 10^5 cells/mL) cells seeded in 96-well plates (Nunc) were incubated with compounds 1–7 at concentrations of 3.125, 6.25, 12.5, 25, 50, 100 and 200 µM prepared in medium with 2% FBS (maintaining medium) for 24 h. The control was constituted by the untreated cells (0 µM). Next, the MTT assay was carried out as described previously.
as §4

T1 sequence (P08473 whole entry): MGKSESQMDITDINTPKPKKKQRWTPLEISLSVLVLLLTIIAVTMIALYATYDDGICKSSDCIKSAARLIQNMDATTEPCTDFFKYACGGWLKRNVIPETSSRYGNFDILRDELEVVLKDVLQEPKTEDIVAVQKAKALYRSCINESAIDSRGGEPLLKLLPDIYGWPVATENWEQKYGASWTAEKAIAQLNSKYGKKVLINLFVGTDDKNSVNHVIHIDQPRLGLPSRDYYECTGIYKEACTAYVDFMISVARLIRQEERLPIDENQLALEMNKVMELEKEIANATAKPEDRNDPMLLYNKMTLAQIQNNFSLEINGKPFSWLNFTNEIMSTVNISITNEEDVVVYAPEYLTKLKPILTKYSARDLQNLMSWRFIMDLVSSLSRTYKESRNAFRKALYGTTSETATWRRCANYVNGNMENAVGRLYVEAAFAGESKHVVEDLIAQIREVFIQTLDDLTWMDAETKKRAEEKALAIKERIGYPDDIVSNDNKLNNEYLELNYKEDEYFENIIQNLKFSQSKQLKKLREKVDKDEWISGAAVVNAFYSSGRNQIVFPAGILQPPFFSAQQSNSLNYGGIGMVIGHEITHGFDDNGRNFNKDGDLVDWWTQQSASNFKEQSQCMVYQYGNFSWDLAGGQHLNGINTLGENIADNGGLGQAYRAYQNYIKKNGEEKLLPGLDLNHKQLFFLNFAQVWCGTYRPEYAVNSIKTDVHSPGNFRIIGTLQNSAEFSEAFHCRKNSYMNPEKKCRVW

| Compound | lowest concentration that inhibited proliferation statistically significantly (osteosarcoma HOS cells) | inhibition at 6.25 µM (osteosarcoma HOS cells; Homo sapiens, 6.25 µM) | IC50 (osteosarcoma HOS cells; Homo sapiens) | IC50 ([1]; Homo sapiens, MTT) | inhibition at 25 µM ([1]; Homo sapiens, Saos-2, 25 µM, MTT, compared to the control) | lowest concentration that inhibited proliferation statistically significantly ([1]; Saos-2, MTT) | inhibition at 0.1 µM (NEP (neprilysin); 0.1 µM) | inhibition at 0.5 µM (NEP (neprilysin); 0.5 µM) | inhibition at 10 µM (NEP (neprilysin); 10 µM) | inhibition at 50 µM (NEP (neprilysin)) | effect of thiorphan pretreatment on anti-proliferative properties (Saos-2 cells) | effect of thiorphan pretreatment on anti-proliferative properties (HOS cells) | CC50 at 24 h [2] |
| --- | --- | --- | --- | --- | --- | --- | --- | --- | --- | --- | --- | --- | --- |
| [BH3-][P+](OC(C)C)(OC(C)C)C(Nc1ccc(Br)cc1)c1ccc([N+](=O)[O-])cc1 (centres unmarked) [Compound 4, [1-(N-p-bromophenylamino)]-1-(p-nitrophenyl)methylphosphonousacid-borane diisopropyl ester] | 6.25 µM | ~18% | 27.2 ± 7.8 µM | 59.9 ± 15 µM | ~27% | 25 µM | ~40% | ~50% | ~50% | ~50% | partially abolished | partially abolished | 189 ± 36.4 µM |
| [BH3-][P+](OC(C)C)(OC(C)C)C(Nc1ccc(C)cc1)c1ccccc1 (centres unmarked) [Compound 6, [1-(N-p-tolylamino)]-1-phenylmethylphosphonous acid-borane diisopropyl ester] |  |  | 41.5 ± 6.9 µM | 86.8 ± 15.7 µM |  |  |  |  |  | ~30% |  |  | 266 ± 110 µM |
